PMC8267945, “Plumbagin, a Natural Product with Potent Anticancer Activities, Binds to and Inhibits Dihydroorotase, a Key Enzyme in Pyrimidine Biosynthesis” (International Journal of Molecular Sciences, 2021)

Experiments:
ScDHOase = target: T1, ScDHOase (Saccharomyces cerevisiae, UniProt P20051); experiment: rapid spectrophotometric DHOase enzyme assay (hydrolysis of DHO); type: biochemical
T1 construct: made in house; host or cells: E. coli BL21(DE3)
Experimental: PLU (50 μM) was included in the standard assay for analyzing the enzyme activity under different substrate concentrations. […] Data points are an average of three determinations within the 10% error.
(§1) A rapid spectrophotometric assay was used to determine the activity of DHOase. Briefly, the hydrolysis of DHO was measured at 25 °C as the decrease in absorbance at 230 nm. The purified DHOase was added to a 2 mL solution containing 0.5 mM DHO and 100 mM Tris–HCl at pH 8.0 to start the reaction. The extinction coefficient of DHO was 0.92 mM^−1·cm^−1 at 230 nm. The hydrolysis of DHO was monitored using a UV/Vis spectrophotometer (Hitachi U 3300; Hitachi High-Technologies, Tokyo, Japan). A unit of activity was defined as the amount of enzyme catalyzing the hydrolysis of 1 μmol DHO/min, and the specific activity was expressed in terms of units of activity per mg of enzyme. The kinetic parameters Km and Vmax were determined from a nonlinear plot by fitting the hydrolyzing rate from individual experiments to the Michaelis–Menten equation (Enzyme Kinetics module of Sigma-Plot; Systat Software, Chicago, IL, USA).

huDHOase [1] = target: T2, huDHOase (Homo sapiens, UniProt P27708); experiment: fluorescence quenching binding assay
T2 construct: huDHOase1456-1846-NdeI-N; made in house; host or cells: E. coli BL21(DE3)
T2 sequence (P27708 1456-1846): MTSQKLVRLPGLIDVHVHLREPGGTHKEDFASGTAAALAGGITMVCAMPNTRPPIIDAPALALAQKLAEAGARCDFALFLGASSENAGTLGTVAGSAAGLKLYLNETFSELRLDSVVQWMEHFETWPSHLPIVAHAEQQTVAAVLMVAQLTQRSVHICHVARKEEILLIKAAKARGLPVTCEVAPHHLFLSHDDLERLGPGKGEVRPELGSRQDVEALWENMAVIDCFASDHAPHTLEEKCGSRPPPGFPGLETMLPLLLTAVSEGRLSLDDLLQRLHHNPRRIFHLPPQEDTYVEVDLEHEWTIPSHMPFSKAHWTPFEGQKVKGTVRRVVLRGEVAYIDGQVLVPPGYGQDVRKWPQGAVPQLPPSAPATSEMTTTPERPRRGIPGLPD
Experimental: Figure 7 The data used to calculate the Kd values of various DHOases. (A) The fluorescence emission spectra of ScDHOase with PLU of different concentrations (0–200 μM; 0, 10, 20, 50, 75, 100, 125, 150, 175, and 200 μM). The decrease in intrinsic fluorescence of protein was measured at 324 nm upon excitation at 280 nm with a spectrofluorometer. […] (B) The fluorescence emission spectra of huDHOase with PLU of different concentrations (0–200 μM). (C) The fluorescence emission spectra of StDHOase with PLU of different concentrations. (D) The fluorescence emission spectra of ScDHOase–R18A with PLU of different concentrations. (E) The fluorescence emission spectra of ScDHOase–T106A with PLU of different concentrations. […] (F) An aliquot amount of PLU was added to the enzyme solution to determine the Kd. The Kd was obtained by the following equation: ΔF = ΔFmax − Kd(ΔF/[PLU]). Data points are an average of 2–3 determinations within a 10% error.
The decrease in the intrinsic fluorescence of DHOase was measured with a spectrofluorometer (Hitachi F-2700; Hitachi High-Technologies, Japan). The Kd was obtained using the following equation: ΔF = ΔFmax − Kd(ΔF/[PLU]).
The Kd value of the purified DHOase was determined using the fluorescence quenching method as previously described for DHOase, DHPase, and DnaB helicase. Briefly, an aliquot of the compound was added into the solution containing DHOase (1 μM) and 50 mM HEPES at pH 7.0. The decrease in the intrinsic fluorescence of DHOase was measured at 324 nm upon excitation at 280 nm and 25 °C with a spectrofluorometer (Hitachi F-2700; Hitachi High-Technologies, Japan). The Kd was obtained using the following equation: ΔF = ΔFmax − Kd(ΔF/[PLU]).

huDHOase [2] = target: T2, huDHOase; experiment: rapid spectrophotometric DHOase enzyme assay (hydrolysis of DHO); type: biochemical; settings: 200 μM compound in the standard assay
Experimental: as §1, with “The extinction coefficient of DHO was 0.92 mM^−1·cm^−1 at 230 nm.” left out

[3] = test system: S. enterica serovar Typhimurium LT2; experiment: bacterial growth inhibition; type: cell-based; settings: 100 μM PLU added at 0.5 OD600, 37 °C
Experimental: (§2) Figure 8 Anticancer and antibacterial activities of PLU. (A) The trypan blue assay—4T1 cells incubated with PLU (10 μM). After 24 h, the anticancer potentiality was estimated. (B) The wound-healing assay—4T1 cells were seeded in 24-well plates. Cells were incubated with PLU (10 μM) for 24 h to allow migration. (C) Hoechst staining assay—an amount of 10 μM PLU-induced apoptosis with DNA fragmentation was observed. […] (E) Effects of PLU on cell survival, migration and proliferation, and nuclear condensation—a concentration of 10 μM PLU was effective for anti-4T1 cancer cells. (F) PLU inhibited bacterial growth—K. pneumoniae and S. enterica serovar Typhimurium LT2 cells were grown to 0.5 OD600 at 37 °C, and then PLU was added into the medium. […] PLU may inhibit the pyrimidine biosynthesis, resulting in its antibacterial activities.
(§3) Similar to cancer cells, bacterial cells are rapidly reproducible, and their growth might be suppressed by PLU. To test whether PLU could inhibit bacterial growth, we grew Klebsiella pneumoniae and S. enterica serovar Typhimurium LT2 cells to 0.5 OD600 at 37 °C, and then added PLU into the medium. […] Thus, PLU was also effective for antipathogen chemotherapies. PLU may inhibit pyrimidine biosynthesis, resulting in antibacterial activities.

Klebsiella pneumoniae = experiment: bacterial growth inhibition; type: cell-based; settings: 100 μM PLU added at 0.5 OD600, 37 °C
Experimental: as §2, §3

T1 sequence (P20051 whole entry): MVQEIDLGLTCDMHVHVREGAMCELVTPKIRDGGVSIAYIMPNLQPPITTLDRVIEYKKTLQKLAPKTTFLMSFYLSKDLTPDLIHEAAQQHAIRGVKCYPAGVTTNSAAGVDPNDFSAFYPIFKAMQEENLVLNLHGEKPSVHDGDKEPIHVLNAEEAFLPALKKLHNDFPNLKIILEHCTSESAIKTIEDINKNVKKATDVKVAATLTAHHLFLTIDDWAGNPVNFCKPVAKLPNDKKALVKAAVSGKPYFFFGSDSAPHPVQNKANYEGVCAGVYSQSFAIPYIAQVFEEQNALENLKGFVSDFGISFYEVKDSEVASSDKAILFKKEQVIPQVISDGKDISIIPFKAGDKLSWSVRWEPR

**Q.** With `CC1=CC(=O)c2c(O)cccc2C1=O` [PLU, plumbagin] as the molecule, how does the “inhibition type (Lineweaver–Burk plot)” value (ScDHOase; PLU 50 μM, different substrate concentrations) read?
**A.** competitive inhibitor

**Q.** And the “Vmax of ScDHOase in the presence of PLU” value (ScDHOase; PLU 50 μM, without PLU 69.9 ± 1.0)?
**A.** 64.1 ± 2.8 µmol/mg/min

**Q.** And the “decrease of the activity of ScDHOase” value (ScDHOase; PLU 200 μM)?
**A.** 66%

**Q.** What about the “quenching of huDHOase” value (huDHOase [1]; PLU 0–200 μM) of the same molecule?
**A.** 75.6%

**Q.** What about the “λem shift of huDHOase” value (huDHOase [1]; PLU 0–200 μM) of the same molecule?
**A.** 1.5 nm

**Q.** What about the “λmax of huDHOase emission” value (huDHOase [1]; PLU 0–200 μM) of the same molecule?
**A.** from 340 to 338.5

**Q.** What about the Kd (huDHOase [1]; fluorescence quenching titration curve) of the same molecule?
**A.** 151 ± 4.1 µM

**Q.** And the “decrease of the activity of huDHOase” value (huDHOase [2])?
**A.** 30%

**Q.** What about the “growth of S. enterica serovar Typhimurium LT2” value [3] of the same molecule?
**A.** significantly inhibited the growth

**Q.** What about the “growth of K. pneumoniae” value (Klebsiella pneumoniae) of the same molecule?
**A.** significantly inhibited the growth
